From patent US9089587B2, “Treatment of papulopustular rosacea with ivermectin” (Galderma S.A., priority 2013, dated 2015)

Experiments:
[1] = system: subjects with moderate or severe papulopustular rosacea; experiment: Ivermectin 1% cream vs metronidazole 0.75% cream, Period A, 16 weeks (Example 4); type: in vivo, human; details: week 12 (highest difference)
Excerpt: Study visits during Period A were as follows: a screening visit, and at baseline, weeks 3, 6, 9, 12 and 16.
Eligible subjects were 18 years or older, with moderate or severe papulopustular rosacea as noted by an IGA of 3 (“several small or large papules/pustules, moderate erythema”) or 4 (“numerous small and/or large papules/pustules, severe erythema”), and presenting with 15-70 facial inflammatory lesions (papules and pustules).
The subjects were instructed to maintain a consistent lifestyle throughout the study regarding rosacea triggers (i.e. avoiding environmental factors, certain foods, and excessive sun exposure).
Efficacy assessments at each visit were inflammatory lesion counts (papules and pustules) counted on five facial regions (forehead, chin, nose, right cheek, left cheek), and the Investigator's Global Assessment (IGA) of disease severity. Safety assessments included adverse events (AEs) throughout the study, local tolerance parameters (stinging/burning, dryness, itching) at each visit evaluated on a 4-point scale (from 0 (none) to 3 (severe)), and laboratory parameters measured at baseline, weeks 9 and 16. Other assessments included the subject's evaluation of rosacea improvement compared to their condition at baseline, and subject's appreciation questionnaire at the end of the study (regarding satisfaction with the study drug). […]

[2] = system: subjects with moderate or severe papulopustular rosacea; experiment: Study 1 and Study 2: once-daily ivermectin 1% cream vs vehicle, first part, 12 weeks (Example 3); type: in vivo, human
Method: Both studies were conducted in accordance with the ethical principles of the Declaration of Helsinki and Good Clinical Practices, and in compliance with local regulatory requirements.
Each study had three parts. In the first part of the study, subjects with PPR were treated with ivermectin 1% cream (IVM 1%) or vehicle once daily at bedtime for 12 weeks. In the second part of the study, subjects initially treated with IVM 1% once daily at bedtime continued the same treatment, while subjects treated with the vehicle once daily switched to topical treatment with azelaic acid 15% gel twice daily, in the morning and evening. The third part of the study consisted of 4 weeks safety follow-up, without treatment. […]
Efficacy assessments at each visit were the IGA of disease severity, and inflammatory lesion counts (papules and pustules) on each of the five facial regions (forehead, chin, nose, right cheek, left cheek). Safety assessments included adverse events (AEs) throughout the study, local tolerance parameters (stinging/burning, dryness, itching) at each study visit evaluated on a 4-point scale [from 0 (none) to 3 (severe)], and laboratory parameters (hematology and biochemistry) measured before and after treatment. […]

5-O-demethyl-22,23-dihydroavermectin A1a plus 5-O-demethyl-25-de(1-methylpropyl)-25-(1-methylethyl)-22,23-dihydroavermectin A1a [ivermectin]
difference in IGA success rate, ivermectin superior to metronidazole [1]: 14.9% | median reduction from baseline in inflammatory lesion counts ([2]; Study 1, week 2): about 30% | median reduction from baseline in inflammatory lesion counts ([2]; Study 2, week 2): 27.3%
